Assay results reported in patent publication US12545685B2 (Daiichi Sankyo Company, Limited, priority 2011, dated 2026).

Experiments:
[1] = target: T1, Mdm2/p53 binding (GST-Mdm2 / His-p53) (Homo sapiens, UniProt Q00987, L33E); experiment: Mdm2/p53 binding assay (HTRF, His-p53 and GST-Mdm2); details: His-p53 (aa 1-132) and GST-Mdm2 (aa 25-108, L33E) 6.25 nM each; 25°C, 1 hour; values given as ranges
T1 construct: Mdm2 partial protein having Mdm2 amino acids at positions 25 to 108
Procedure, shortened: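 Binding was detected by HTRF (ex 320 nm, em 620/665 nm) after 1 h at 25 °C, using Eu-cryptate anti-GST and XL665 anti-His antibodies. The protein pair was GST-Mdm2 (residues 25–108, L33E) with His-p53 (residues 1–132), each 6.25 nM in the protein dilution. T/C used no-compound control and no-p53 background, and IC50 came from sigmoid fitting.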

[2] = test system: human lung cancer-derived cell line NCI-H460 having wild-type p53; experiment: Cell growth inhibition assay (MTT); format: cell-based; details: 72 h, NCI-H460 cells, 3 days culture, values given as ranges, read-out: 50% growth inhibition concentration (GI50 value)
Experimental: A cell growth inhibition assay was conducted using a human lung cancer-derived cell line NCI-H460 having wild-type p53.
NCI-H460 cells were suspended in a medium (RPMI1640 medium containing 10% fetal bovine serum) and the suspension was added in an amount of 500 cells/150 μl/well to a 96-well plate. A test compound was dissolved in DMSO and this solution was diluted with medium to prepare a sample solution (DMSO concentration: 1% or lower). On the next day, medium nonsupplemented with the test compound, or the sample solution, was added in an amount of 50 μl/well. Cells were then cultured at 37° ° C. for 3 days in a 5% CO2 atmosphere.
An MTT assay was conducted immediately after the nonsupplemented medium or the sample solution was added. Another MTT assay was conducted after culturing the cells for 3 days. The MIT assays were conducted as shown below.
A 5 mg/ml MTT (3-(4,5-dimethylthiazol-2-yl)-2,5-diphenyltetrazolium bromide, Sigma-Aldrich Co., M-2128) solution was prepared using a phosphate buffer solution (Dulbecco's Phosphate-buffered Saline). This MIT solution was added in an amount of 20 μl/well. Then the plate was cultured at 37° ° C. for 4 hours in a 5% CO2 atmosphere. The plate was centrifuged at 1200 rpm for 5 minutes and then the culture supernatant was removed by aspiration using a dispenser. DMSO was added in an amount of 150 μl/well to dissolve generated formazan. The plate was stirred using a plate mixer for uniform color development from each well. The absorbance of each well was measured at OD 540 nm and at a reference OD (660 nm) using a plate reader (SpectraMax PLUS384, Molecular Devices, CA, USA).
The OD value measured on the day of adding the sample solution was defined as S. The OD value measured three days after addition of the sample solution was defined as T. The OD value measured three days after addition of the DMSO dilution was defined as C. T/C (%) was determined at each concentration according to the formula shown below in order to prepare a dose response curve, from which 50% growth inhibition concentration (GI50 value) was calculated.

T1 sequence (Q00987 25-108 L33E): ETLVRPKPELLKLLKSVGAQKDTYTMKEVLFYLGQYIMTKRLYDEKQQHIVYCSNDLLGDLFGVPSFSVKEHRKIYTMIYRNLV

Row | Structure (SMILES) | IC50 [1] [nM] | GI50 [2] [nM]
1 | CC1(C)CCC2(CC1)N[C@@H](C(=O)N[C@@H]1CC[C@@H](CO)OC1)[C@H](c1ccnc(Cl)c1)[C@]21C(=O)Nc2cc(Cl)ccc21 [Example 13, (3′R, 4′R, 5′R)-6″-chloro-4′-(2-chloropyridin-4-yl)-N-[(3R,6S)-6-(hydroxymethyl)tetrahydro-2H-pyran-3-yl]-4,4-dimethyl-2″-oxo-1″,2″-dihydrodispiro[cyclohexane-1,2′-pyrrolidine-3′,3″-indole]-5′-carboxamide] | 1 to 50 | 100 to 500
2 | CC1(C)CCC2(CC1)N[C@@H](C(=O)N[C@H]1CC[C@H](O)CC1)[C@H](c1cc(F)cc(Cl)c1)[C@]21C(=O)Nc2cc(Cl)ccc21 [Example 14, (3′R, 4′R, S′R)-6″-chloro-4′-(3-chloro-5-fluorophenyl)-N-(trans-4-hydroxycyclohexyl)-4,4-dimethyl-2″-oxo-1″,2″-dihydrodispiro[cyclohexane-1,2′-pyrrolidine-3′,3″-indole]-5′-carboxamide] | 100 to 500 | 500 to 1000
3 | CC1(C)CCC2(CC1)N[C@@H](C(=O)N[C@@H]1CC[C@@H](C(C)(C)O)OC1)[C@H](c1ccnc(Cl)c1F)[C@]21C(=O)Nc2cc(Cl)ccc21 [Example 17, (3′R, 4′S,5′R)-6″-chloro-4′-(2-chloro-3-fluoropyridin-4-yl)-N-[(3R,6S)-6-(1-hydroxy-1-methylethyl)tetrahydro-2H-pyran-3-yl]-4,4-dimethyl-2″-oxo-1″,2″-dihydrodispiro[cyclohexane-1,2′-pyrrolidine-3′,3″-indole]-5′-carboxamide] | 50 to 100 | 100 to 500
4 | CC1(C)CCC2(CC1)N[C@@H](C(=O)N[C@@H]1CC[C@@H](CO)OC1)[C@H](c1ccnc(Cl)c1F)[C@]21C(=O)Nc2cc(Cl)ccc21 [Example 20, (3′R, 4′S,5′R)-6″-chloro-4′-(2-chloro-3-fluoropyridin-4-yl)-N-[(3R,6S)-6-(hydroxymethyl)tetrahydro-2H-pyran-3-yl]-4,4-dimethyl-2″-oxo-1″,2″-dihydrodispiro[cyclohexane-1,2′-pyrrolidine-3′,3″-indole]-S′-carboxamide] | 1 to 50 | < 100
5 | CC1(C)CCC2(CC1)N[C@@H](C(=O)N[C@@H]1CC[C@@H](CO)OC1)[C@H](c1ccnc(Cl)c1F)[C@]21C(=O)Nc2cc(Cl)c(F)cc21 [Example 23, (3′R, 4′S,5′R)-6″-chloro-4′-(2-chloro-3-fluoropyridin-4-yl)-5″-fluoro-N-[(3R,6S)-6-(hydroxymethyl)tetrahydro-2H-pyran-3-yl]-4,4-dimethyl-2″-oxo-1″,2″-dihydrodispiro[cyclohexane-1,2′-pyrrolidine-3′,3″-indole]-5′-carboxamide] | 1 to 50 | 100 to 500
6 | CC1(C)CCC2(CC1)N[C@@H](C(=O)N[C@@H]1CC[C@@H](CO)OC1)[C@H](c1ccnc(Cl)c1F)[C@]21C(=O)Nc2nc(Cl)ccc21 [Example 25, (3′R, 4′S,5′R)-6″-chloro-4′-(2-chloro-3-fluoropyridin-4-yl)-N-[(3R,6S)-6-(hydroxymethyl)tetrahydro-2H-pyran-3-yl]-4,4-dimethyl-2″-oxo-1″,2″-dihydrodispiro[cyclohexane-1,2′-pyrrolidine-3′,3″-pyrrolo[2,3-b]pyridine]-5′-carboxamide] | 1 to 50 | 500 to 1000
7 | CC1(C)CCC2(CC1)N[C@@H](C(=O)N[C@@H]1CC[C@@H](CO)OC1)[C@H](c1cc(Cl)cc(CO)c1)[C@]21C(=O)Nc2cc(Cl)ccc21 [Example 28, (3′R, 4′R, 5′R)-6″-chloro-4′-[3-chloro-5-(hydroxymethyl)phenyl]-N-[(3R,6S)-6-(hydroxymethyl)tetrahydro-2H-pyran-3-yl]-4,4-dimethyl-2″-oxo-1″,2″-dihydrodispiro[cyclohexane-1,2′-pyrrolidine-3′,3″-indole]-5′-carboxamide] | 1 to 50 | 1000 to 5000
8 | CC1(C)CCC2(CC1)N[C@@H](C(=O)N[C@H]1CO[C@H](CO)[C@@H](O)C1)[C@H](c1ccnc(Cl)c1F)[C@]21C(=O)Nc2cc(Cl)ccc21 [Example 29] | 1 to 50 | 1000 to 5000
